# Source: PMC10743086, “Immunofluorescence-Based Assay for High-Throughput Analysis of Multidrug Resistance Markers in Non-Small Cell Lung Carcinoma Patient-Derived Cells” (Diagnostics, 2023)
# Experiments:
# Assay type in all cases: cell-based, human
# NCI-H460/R cells = assay: Cytotoxicity by immunofluorescence cell scoring (cell counts), multidrug-resistant NSCLC cell line; settings: for IC50: Homo sapiens, 24 h treatment
# Method in brief: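 ABCB1-overexpressing NCI-H460/R cells, doxorubicin-selected, treated 48 h after seeding for 24 h. Cytotoxicity from automated imaging cell counts after fixation and CK8/18 plus MDR-marker immunostaining, using cell-scoring analysis.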
# MRC-5 cells = assay: Cytotoxicity by immunofluorescence cell scoring (cell counts), normal fibroblasts; settings: Homo sapiens, MRC5, 24 h, 24 h treatment
# Method in brief: (§1)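 Compounds added 48 h after seeding, then 24 h exposure. Cells fixed in 4% paraformaldehyde, BSA-blocked, co-stained for ABCB1 with CK8/18 to separate cancer from stromal cells; 4x automated imaging. Cytotoxicity from cell-count scoring; ABCB1 expression from multi-wavelength cell scoring.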
# [1] = test system: ABCB1 expression in MRC-5 cells; assay: Immunofluorescence assay of MDR marker ABCB1 expression; settings: five concentrations, 24 h
# Method in brief: as §1
# [2] = test system: ABCB1 expression in NCI-H460 cells; assay: as above; settings: five concentrations, 24 h
# Method in brief: as §1
# [3] = test system: ABCB1 expression in NCI-H460/R cells; assay: as above; settings: five concentrations, 24 h
# Method in brief: as §1
# [4] = test system: Non-cancer cells (CK8/18-) of patient-derived NSCLC cultures; assay: Cytotoxicity in patient-derived NSCLC cultures, non-cancer cells; settings: Homo sapiens, 168 h, 7 days treatment
# Method in brief: (§2)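 Surgical NSCLC tissue was enzymatically dissociated and grown as primary cultures; 1000 cells/well were seeded and treated from 72 h after seeding for 7 days. Cells were fixed in 4% paraformaldehyde, CK8/18 staining separated cancer from stromal cells, and ABCC1/ABCG2 were co-immunostained.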
# [5] = test system: ABCB1 expression in cancer cells (CK8/18+); assay: Immunofluorescence assay of ABCB1 expression in patient-derived NSCLC cultures; settings: 7 days
# Method in brief: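 PDC from resected NSCLC, Tumor Dissociation Kit, DMEM/F12 + 5% FBS, hydrocortisone, insulin, EGF, adenine. 1000 cells/well; drug added at 72 h, 7 d exposure. Fix 4% PFA 20 min RT, block 2% BSA 1 h; CK8/18 co-stain with ABC markers.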
# [6] = test system: ABCC1 expression in cancer cells (CK8/18+); assay: Immunofluorescence assay of ABCC1 expression in patient-derived NSCLC cultures; settings: 7 days
# Method in brief: as §2
# [7] = test system: ABCG2 expression in cancer cells (CK8/18+); assay: Immunofluorescence assay of ABCG2 expression in patient-derived NSCLC cultures; settings: 7 days
# Method in brief: as §2
# [8] = NCI-H460/R (co-culture with MRC-5)
# [9] = MRC-5 (co-culture with NCI-H460)
# [10] = MRC-5 (co-culture with NCI-H460/R)
# [11] = culture TR58, cancer cells (CK8/18+)
# [12] = culture TR64, cancer cells (CK8/18+)
# [13] = culture TR65, cancer cells (CK8/18+)
# [14] = culture TR84, cancer cells (CK8/18+)
# [15] = culture TR87, cancer cells (CK8/18+)
smiles,measurement,setting,value
CCC1=C[C@@H]2CN(C1)Cc1c([nH]c3ccccc13)[C@@](C(=O)OC)(c1cc3c(cc1OC)N(C)[C@H]1[C@@](O)(C(=O)OC)[C@H](OC(C)=O)[C@]4(CC)C=CCN5CC[C@]31[C@@H]54)C2 [Vinorelbine],IC50,NCI-H460/R cells; [8],0.839 µM
same,IC50,NCI-H460/R cells; NCI-H460/R monoculture,0.99 µM
same,resistance of NCI-H460/R cells compared to the NCI-H460 cells,"NCI-H460/R cells; ratio of IC50 values, monocultures",27 fold
same,IC50,MRC-5 cells; [9],0.477 µM
same,IC50,MRC-5 cells; [10],> 1 µM
same,IC50,MRC-5 cells; MRC-5 monoculture,> 1 µM
same,ABCB1 Expression,[1]; [9],no change
same,ABCB1 Expression,[1]; [10],no change
same,ABCB1 Expression,[1]; MRC-5 monoculture,no change
same,ABCB1 Expression,[2]; NCI-H460 (co-culture with MRC-5),increase (An increase in ABCB1 expression of at least 20% at a minimum of one concentration is shown in the table.)
same,ABCB1 Expression,[2]; NCI-H460 monoculture,increase (An increase in ABCB1 expression of at least 20% at a minimum of one concentration is shown in the table.)
same,ABCB1 Expression,[3]; [8],no change
same,ABCB1 Expression,[3]; NCI-H460/R monoculture,no change
same,IC50,"[4]; culture TR58, non-cancer cells (CK8/18-)",0.16 µM
same,IC50,"[4]; culture TR64, non-cancer cells (CK8/18-)",0.184 µM
same,IC50,"[4]; culture TR65, non-cancer cells (CK8/18-)",0.0328 µM
same,IC50,"[4]; culture TR84, non-cancer cells (CK8/18-)",0.0339 µM
same,IC50,"[4]; culture TR87, non-cancer cells (CK8/18-)",0.361 µM
same,ABCB1 Expression,[5]; [11],no change
same,ABCB1 Expression,[5]; [12],"increase (An increase in ABCB1, ABCC1, or ABCG2 expression of at least 20% at a minimum of one concentration is shown in the table.)"
same,ABCB1 Expression,[5]; [13],"increase (An increase in ABCB1, ABCC1, or ABCG2 expression of at least 20% at a minimum of one concentration is shown in the table.)"
same,ABCB1 Expression,[5]; [14],"increase (An increase in ABCB1, ABCC1, or ABCG2 expression of at least 20% at a minimum of one concentration is shown in the table.)"
same,ABCB1 Expression,[5]; [15],"increase (An increase in ABCB1, ABCC1, or ABCG2 expression of at least 20% at a minimum of one concentration is shown in the table.)"
same,ABCC1 expression,[6]; [11],no change
same,ABCC1 expression,[6]; [12],"increase (An increase in ABCB1, ABCC1, or ABCG2 expression of at least 20% at a minimum of one concentration is shown in the table.)"
same,ABCC1 expression,[6]; [13],"increase (An increase in ABCB1, ABCC1, or ABCG2 expression of at least 20% at a minimum of one concentration is shown in the table.)"
same,ABCC1 expression,[6]; [14],"increase (An increase in ABCB1, ABCC1, or ABCG2 expression of at least 20% at a minimum of one concentration is shown in the table.)"
same,ABCC1 expression,[6]; [15],"increase (An increase in ABCB1, ABCC1, or ABCG2 expression of at least 20% at a minimum of one concentration is shown in the table.)"
same,ABCG2 expression,[7]; [11],"increase (An increase in ABCB1, ABCC1, or ABCG2 expression of at least 20% at a minimum of one concentration is shown in the table.)"
same,ABCG2 expression,[7]; [12],"increase (An increase in ABCB1, ABCC1, or ABCG2 expression of at least 20% at a minimum of one concentration is shown in the table.)"
same,ABCG2 expression,[7]; [13],"increase (An increase in ABCB1, ABCC1, or ABCG2 expression of at least 20% at a minimum of one concentration is shown in the table.)"
same,ABCG2 expression,[7]; [14],"increase (An increase in ABCB1, ABCC1, or ABCG2 expression of at least 20% at a minimum of one concentration is shown in the table.)"
same,ABCG2 expression,[7]; [15],"increase (An increase in ABCB1, ABCC1, or ABCG2 expression of at least 20% at a minimum of one concentration is shown in the table.)"
